Literature values, collected in patent US20140316534A1, “STENT” (Photocure ASA, priority 2011, published 2014).

Tested on: dysplastic tissue in Barrett's esophagus
[1] = systemic application, higher doses of 20 mg/kg and 30 mg/kg

Compound: NCC(=O)CCC(=O)O [5-ALA, 5-amino-4-oxo-pentanoic acid]
- side effects (systemic application of 20 mg/kg or more): increasing side effects at high dosages
- sensitivity for detection of dysplastic tissue [1]: increase the sensitivity
- specificity (rate of false positive fluorescence) [1]: poor
